The experiment has as its target T1, CETP (Homo sapiens, UniProt P11597).
T1 construct: Human plasma (50 μL), assay buffer (35 μL) and test compound; tissue New Drug Development Research Center, Inc; host or cells: human EDTA plasma from healthy men
T1 sequence (P11597 18-493): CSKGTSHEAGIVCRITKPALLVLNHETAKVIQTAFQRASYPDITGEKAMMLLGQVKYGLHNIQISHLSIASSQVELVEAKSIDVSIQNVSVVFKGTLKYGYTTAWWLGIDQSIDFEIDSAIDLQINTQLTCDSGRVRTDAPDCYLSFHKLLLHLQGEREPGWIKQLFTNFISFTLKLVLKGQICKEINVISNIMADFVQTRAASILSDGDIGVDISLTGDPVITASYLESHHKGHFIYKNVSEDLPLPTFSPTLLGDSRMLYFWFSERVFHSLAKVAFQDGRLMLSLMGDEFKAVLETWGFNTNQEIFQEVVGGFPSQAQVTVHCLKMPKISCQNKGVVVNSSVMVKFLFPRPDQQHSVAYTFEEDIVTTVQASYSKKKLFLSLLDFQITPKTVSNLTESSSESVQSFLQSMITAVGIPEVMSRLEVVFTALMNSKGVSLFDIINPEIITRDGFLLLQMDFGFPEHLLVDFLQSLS
The experiment in a line: in vitro CETP activity in human plasma (BODIPY-CE donor microemulsion, fluorescence). Format: biochemical. As to the method:
For purposes of detecting the in vitro and in vivo CETP activity, human pro-apolipoprotein AI (pro-apoAI) and donor microemulsion are prepared as follows. The cDNA of human pro-apoAI (NCBI accession number: NM_000039) is cloned from human liver Quick-Clone™ cDNA (Clontech, CA) and inserted to a pET28a vector (Novagen, Germany) for bacterial expression. Expressed protein as a fusion protein with 6×His-tag at N-terminus in BL-21 Gold (DE3) (Strategene, CA) is purified using HiTrap Chelating (GE Healthcare, CT). Pro-apoAI containing microemulsion as a donor particle is prepared following previous reports (J. Biol. Chem., 280:14918-22). Glyceryl trioleate (62.5 ng, Sigma, Mo.), 3-sn-phosphatidylcholine (583 ng, Wako Pure Chemical Industries, Japan), and cholesteryl BODIPY® FL C12 (250 ng, Invitrogen, CA) are dissolved in 1 mL of chloroform. The solution is evaporated, then residual solvent is removed in vacuum for more than 1 hr. The dried lipid mixture is dissolved in 500 μL of the assay buffer (50 mM Tris-HCl (pH7.4) containing 150 mM NaCl and 2 mM EDTA) and sonicated at 50° C. with a microtip (MICROSON™ ULTRASONIC CELL DISRUPTOR, Misonix, Farmingdale, N.Y.) at output power 006 for 2 min. After sonication, the solution is cooled to 40° C., added to 100 μg of human pro-apoAI, and sonicated at output power 004 for 5 min at 40° C. The solution, BODIPY-CE microemulsion as a donor molecule is stored at 4° C. after filtration through a 0.45 μm PVDF filter.
For purposes of detecting in vitro CETP activity, human EDTA plasma samples from healthy men are purchased from New Drug Development Research Center, Inc. Donor solution is prepared by a dilution of donor microemulsion with assay buffer. Human plasma (50 μL), assay buffer (35 μL) and test compound dissolved in dimethylsulfoxide (1 μL) are added to each well of 96 well half area black flat bottom plate. The reaction is started by the addition of donor solution (14 μL) into each well. Fluorescence intensities are measured every 30 min at 37° C. with excitation wave length of 485 nm and emission wavelength of 535 nm. The CETP activity (Fl/min) is defined as the changes of fluorescence intensity from 30 to 90 min. The IC50 value is obtained by the logistic equation (Y=Bottom+(Top-Bottom)/(1+(x/IC50)̂Hill slope) using Origin software, version 7.5 SR3.

We go through 8 compounds from US20090181929A1, “ORGANIC COMPOUNDS” (priority 2006, published 2009).

What is called IC50 is the concentration at which inhibition is half-maximal. Low values mean inhibition by little substance, high ones a need for much substance. `CCN(CC1CCCC1)c1nc(C)c(Br)cc1CN(Cc1cc(C(F)(F)F)cc(C(F)(F)F)c1)c1nnn(C)n1` [Compound 4, (3-{[(3,5-Bis-trifluoromethyl-benzyl)-(2-methyl-2H-tetrazol-5-yl)-amino]-methyl}-5-bromo-6-methyl-pyridin-2-yl)-cyclopentylmethyl-ethyl-amine]: the IC50 stood at 110 nM.
In turn, `CCN(CC1CCCC1)c1ncc(I)cc1CN(Cc1cc(C(F)(F)F)cc(C(F)(F)F)c1)c1nnn(C)n1` [Compound 6, (3-{[(3,5-Bis-trifluoromethyl-benzyl)-(2-methyl-2H-tetrazol-5-yl)-amino]-methyl}-5-iodo-pyridin-2-yl)-cyclopentylmethyl-ethyl-amine] gave an IC50 of 230 nM.
Compound `CCN(CC1CCCC1)c1ncc(C)cc1CN(Cc1cc(C(F)(F)F)cc(C(F)(F)F)c1)c1nnn(C)n1` [Compound 5, (3-{[(3,5-Bis-trifluoromethyl-benzyl)-(2-methyl-2H-tetrazol-5-yl)-amino]-methyl}-5-methyl-pyridin-2-yl)-cyclopentylmethyl-ethyl-amine] yielded an IC50 of 300 nM.
`CCN(CC1CCCC1)c1ncc(N2CCC2)cc1CN(Cc1cc(C(F)(F)F)cc(C(F)(F)F)c1)c1nnn(C)n1` [Compound 1, (5-Azetidin-1-yl-3-{[(3,5-bis-trifluoromethyl-benzyl)-(2-methyl-2H-tetrazol-5-yl)-amino]-methyl}-pyridin-2-yl)-cyclopentylmethyl-ethyl-amine] gave an IC50 of 260 nM.
In the case of `CCN(CC1CCCC1)c1ncc([N+](=O)[O-])cc1CN(Cc1cc(C(F)(F)F)cc(C(F)(F)F)c1)c1nnn(C)n1` [Compound 8, (3-{[(3,5-Bis-trifluoromethyl-benzyl)-(2-methyl-2H-tetrazol-5-yl)-amino]-methyl}-5-nitro-pyridin-2-yl)-cyclopentylmethyl-ethyl-amine] it was 630 nM.
In the case of `CCN(CC1CCCC1)c1ncc(N(C)C(C)=O)cc1CN(Cc1cc(C(F)(F)F)cc(C(F)(F)F)c1)c1nnn(C)n1` [Compound 2, N-[5-{[(3,5-Bis-trifluoromethyl-benzyl)-(2-methyl-2H-tetrazol-5-yl)-amino]-methyl}-6-(cyclopentylmethyl-ethyl-amino)-pyridin-3-yl]-N-methyl-acetamide] it was 370 nM.
In the case of `CCCCN(C)c1cnc(N(CC)CC2CCCC2)c(CN(Cc2cc(C(F)(F)F)cc(C(F)(F)F)c2)c2nnn(C)n2)c1` [Compound 7, 3-{[(3,5-Bis-trifluoromethyl-benzyl)-(2-methyl-2H-tetrazol-5-yl)-amino]-methyl}-N*5*-butyl-N*2*-cyclopentylmethyl-N*2*-ethyl-N*5*-methyl-pyridine-2,5-diamine] it was 720 nM.
`CCN(CC1CCCC1)c1ncc(SC)cc1CN(Cc1cc(C(F)(F)F)cc(C(F)(F)F)c1)c1nnn(C)n1` [Compound 3, (3-{[(3,5-Bis-trifluoromethyl-benzyl)-(2-methyl-2H-tetrazol-5-yl)-amino]-methyl}-5-methylsulfanyl-pyridin-2-yl)-cyclopentylmethyl-ethyl-amine] came in with an IC50 of 140 nM. Compared with the last compound, the IC50 is about 5.1-fold lower.
